The results in this text go back to ChEMBL document CHEMBL3352393, “Gallic acid, one of the components in many plant tissues, is a potential inhibitor for insulin amyloid fibril formation” (Eur J Med Chem, 2014).

The source made the active and inactive calls. The calls are words filed in the database; no cut-off is given here.

The species entered for assay [1] is Homo sapiens. The experiment in a line: Inhibition of insulin fibril formation (unknown origin) assessed as turbidity at 1:20 insulin to compound ratio at pH2 up to 12 hrs by atomic force microscopy.
For assay [2], the species on record is Homo sapiens. The experiment in a line: Inhibition of insulin fibril formation (unknown origin) assessed as turbidity at 1:10 insulin to compound ratio at pH2 up to 12 hrs by UV/vis spectrometry.
The species named for assay [3] is Homo sapiens. The assay is described as follows: Inhibition of insulin fibril formation (unknown origin) assessed as secondary structural changes at 1:5 insulin to compound ratio at pH2 up to 12 hrs by FT-IR technique.
The species named for assay [4] is Homo sapiens. The assay is described as follows: Inhibition of insulin fibril formation (unknown origin) assessed as secondary structural changes at 1:5 insulin to compound ratio at pH2 up to 12 hrs by Far-UV CD spectra.
Assay [5] is filed under the species Homo sapiens. The assay is described as follows: Inhibition of insulin fibril formation (unknown origin) assessed as turbidity at 1:50 insulin to compound ratio at pH2 up to 12 hrs by UV/vis spectrometry. The settings on record: concentration not given here.
The species named for assay [6] is Homo sapiens. The assay is described as follows: Inhibition of insulin fibril formation (unknown origin) assessed as decrease in ThT fluorescence at 1:50 insulin to compound ratio at pH2 up to 12 hrs by ThT binding assay.
Assay [7] is filed under the species Homo sapiens. The assay is described as follows: Inhibition of insulin fibril formation (unknown origin) assessed as turbidity at 1:5 insulin to compound ratio at pH2 up to 12 hrs by UV/vis spectrometry. Particulars: concentration not given here.
For assay [8], the species on record is Homo sapiens. The experiment in a line: Inhibition of insulin fibril formation (unknown origin) assessed as turbidity at pH2 up to 12 hrs by UV/vis spectrometry.
Assay [9] is filed under the species Homo sapiens. The assay is described as follows: Inhibition of insulin fibril formation (unknown origin) assessed as decrease in ThT fluorescence at 1:5 insulin to compound ratio at pH2 up to 12 hrs by ThT binding assay.

As for `O=C(O)c1cc(O)c(O)c(O)c1`, the inhibition entry in the assay filed under Homo sapiens [1], in the assay listed under Homo sapiens [2], in the assay listed under Homo sapiens [3], in the assay filed under Homo sapiens [4], in the assay filed under Homo sapiens [6] and in the assay listed under Homo sapiens [9] was “Active” each time. Also, the inhibition in the assay listed under Homo sapiens [5] was 90%; in the assay filed under Homo sapiens [7], greater than 50%; in the assay filed under Homo sapiens [8] it was “Dose-dependent effect”.
